Target: T1, K2P5.1 (TASK-2) (Mus musculus, UniProt F6V9U5)
T1 construct: expressed in transfected cells; host or cells: Xenopus oocytes
T1 sequence (F6V9U5 1-502): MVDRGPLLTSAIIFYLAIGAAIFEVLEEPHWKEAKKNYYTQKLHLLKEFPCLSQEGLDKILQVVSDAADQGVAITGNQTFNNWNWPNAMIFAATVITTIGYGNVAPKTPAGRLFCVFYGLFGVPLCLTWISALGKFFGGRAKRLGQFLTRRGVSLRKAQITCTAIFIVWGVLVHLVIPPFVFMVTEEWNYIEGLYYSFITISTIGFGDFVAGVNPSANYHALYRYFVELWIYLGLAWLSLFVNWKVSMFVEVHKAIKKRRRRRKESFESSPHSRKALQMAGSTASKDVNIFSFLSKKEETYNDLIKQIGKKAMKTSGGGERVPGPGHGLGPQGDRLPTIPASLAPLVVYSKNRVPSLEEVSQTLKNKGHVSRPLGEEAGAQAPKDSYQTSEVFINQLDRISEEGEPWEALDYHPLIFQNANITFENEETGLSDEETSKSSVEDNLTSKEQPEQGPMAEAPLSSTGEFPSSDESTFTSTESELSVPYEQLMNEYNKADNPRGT
Experiment: Two-electrode voltage clamp, Xenopus oocytes expressing K2P5.1 (TASK-2)
Format: cell-based, Murine
Procedure: FIG. 7 ML67-33 is a selective activator of heat- and mechanosensitive K2P channels. a-f, Exemplar I-V curves showing the effect of ML67-33 on a, K2P10.1 (TREK-2), b, K2P4.1 (TRAAK), c, K2P3.1 (TASK-1), d, K2P9.1 (TASK-3), e, K2P5.1 (TASK-2), and f, K2P18.1 (TRESK) measured in Xenopus oocytes in 2 mM [K^+]o pH 7.4. Currents were elicited by a voltage ramp from −150 to 50 mV, from a holding potential of −80 mV. g, Quantification of the effect of ML67-33 on the indicated channels. Data (mean±s.e., n≧6, N≧2) was normalized to basal channel activity and fitted to the Hill equation. […] Error bars indicate s.e., n≧6, N≧2.
Murine K2P channels were cloned into pGEMHE/pMO {Bagriantsev, 2011}, IRES-GFP (Invitrogen), or pYES2-MET25 (high copy 2μ, URA3) {Minor, 1999} for expression in oocytes, HEK-293T cells, and yeast, respectively, using standard molecular biology procedures, and verified by DNA sequencing.
Two-electrode voltage clamp recordings were performed from defolliculated stage V-VI Xenopus oocytes 24-48 hours after injection with 0.015-6.0 ng cRNA, using microelectrodes (0.3-3.0 MΩ) filled with 3M KCl. Data was acquired using the GeneClamp 500B (MDS Analytical Technologies) amplifier controlled by the pClamp software (Molecular Devices), and digitized at 1 kHz using Digidata 1332A (MDS Analytical Technologies). […]

SMILES: CC1(C)c2cc(Cl)ccc2N(CCc2nnn[nH]2)c2ccc(Cl)cc21 [ML67-33, 2,7-dichloro-9,9-dimethyl-10-[2-(1H-tetrazol-5-yl)ethyl]acridine]
- functional effect (in words) (applied at 100 μM): little or no functional effects
- Emax (fold) (at 100 μM (FIG. 7 legend), ** in Table 1): 1.7±0.3 fold

From US9862684B2, “Modulation of K2P channels” (The Regents of the University of California, priority 2013, dated 2018)
